The values that follow come from patent US8398759B2, “Environmental friendly anti-microbial adhesion agents for anti-fouling paints and anti-fouling paints containing them” (Biopaint S.R.L., priority 2008, dated 2013).

Molecules are shown by their SMILES.

Holding throughout (format): cell-based
The test system of assay [1] is mixed populations of biofilmogenic sea bacteria (M1, T1-T5, F1). The assay can be described thus: Bio-film formation (OD570) in microplates painted with supplemented anti-fouling paints. As to conditions: 50 g of agent per kg of paint (E50 FIG. 8; V50 FIG. 9); M1, T1 and T5 populations. As to the method: (§1) The effect of the anti-microbial-adhesion agent of the invention on microbial adhesion and growth has been estimated by using mixed populations of biofilmogenic sea bacteria isolated from the Tyrrhenian Sea (M1), the Adriatic Sea (T1-T5) and an exhausted aquarium filter (F1).
The effectiveness of paints supplemented with the anti-microbial-adhesion agents of the invention in inhibiting the adherent growth of the sea bacteria used in the previous tests was assessed. The formation of a bio-film (OD570) was estimated by the microplate (24 wells) spectrophotometric assay described above. […]
Parallel assays were carried out by using microplates painted with a commercial anti-fouling product (Veneziani Raffaello bianca racing) and non-painted microplates. […]
The paints to be tested were applied only onto the side surface (corresponding to approximately 8.8 cm^2), avoiding to paint the bottom of the wells. […] The plates were inoculated with a cell suspension at an optical density (measured at 600 nm) of 0.5 absorbance units, kept under static incubation, in the dark, for 5 days at 20° C. 5 Days later, the microplates were drained and the growth of the plankton population was determined by a spectrophotometric assessment of the increase in absorbance of the incubation medium. The detection and quantification of a microbial biofilm formation was performed by a spectrophotometric assay. […]

For assay [2] the test system is unchanged. The assay can be described thus: Bio-film formation (crystal violet, OD570) in 24-well microplates, compounds in the free form. As to the method:
as §1
The tests with the compounds in the free form were carried out by using: • eugenol in a concentration in the range from 0.5 to 4 g/l, solubilized in an organic solvent (methanol); • vanillin in a concentration in the range from 0.1 to 5 g/l; • benzaldehyde derivatives in a concentration of 2 g/l.
The formation of the bio-film was assessed, in an indirect way, by measuring the amount of crystal violet retained by the cells grown adherently.
The tests were performed in 24-well microplates inoculated with sea bacteria from bio-films of cultures grown under static conditions for 2 weeks. The effect of the compounds was determined by culturing the microorganisms (starting OD600=0.5) in synthetic sea water (Tropic Marin Sea Salt; 33 g/l) supplemented with yeast extract (3 g/l) and fungal peptone (5 g/l). After the inoculation, the plates were incubated at 20° C. for 5 days before assessing the formation of a bio-film (OD570) and the growth of plankton (OD600). The bio-film was estimated after staining with crystal violet.
The inhibition of adhesion experiments were carried out in 24-well microplates by using eugenol concentrations comprised between 0.5 and 4 g/l. The eugenol stock solution was obtained by melting 2 ml of the compound into 3 ml of methanol and 5 ml of a 10 M NaOH solution. The control plates were set up by adding the same volume of hydroalcoholic solution without eugenol. The results shown in FIG. 1 were obtained by using the M1 population. The tests were subsequently repeated with all 7 populations, using an eugenol concentration of 0.5 g/l.

For assay [3], the system named is plankton growth of sea bacteria populations M1, T1 and T5. The assay can be described thus: Plankton growth (OD600) in microplates painted with vanillin-supplemented paints. The following applies: paints V50, V100, V200; three populations (FIG. 10). The procedure:
The paints to be tested were applied only onto the side surface (corresponding to approximately 8.8 cm^2), avoiding to paint the bottom of the wells. The plates, after being painted, were maintained for 2 days at 20° C., in a dry and ventilated environment, before being used for the adhesion assay. The plates were inoculated with a cell suspension at an optical density (measured at 600 nm) of 0.5 absorbance units, kept under static incubation, in the dark, for 5 days at 20° C. 5 Days later, the microplates were drained and the growth of the plankton population was determined by a spectrophotometric assessment of the increase in absorbance of the incubation medium. The detection and quantification of a microbial biofilm formation was performed by a spectrophotometric assay. The biocide release rate under static conditions was calculated by measuring, through high performance liquid chromatography (HPLC), the increases in time of the biocide concentration in the liquid medium. […]
In FIG. 10, the increases in absorbance (OD600) are expressed as relative values compared to non-treated samples (not painted).

A word on the inhibition: it is the share of the control response that was lost under treatment. Read a high inhibition as a response far below the control. `C=CCc1ccc(O)c(OC)c1` [eugenol]: in assay [1], the “reduced adherent growth of sea bacteria compared to the commercial product” value is given as 1.2-3.2 fold. Further, the “reduction in the bio-film formation” value in assay [2] (eugenol 0.5 g/l, free form, 5 days at 20° C., all populations except T3 and F1 (FIG. 2)) is “about 50%”. Further, the inhibition at 500 µg/mL in assay [2] (eugenol 0.5 g/l, free form, F1 population (FIG. 2)) is around 60%; in assay [2] (eugenol 0.5 g/l, free form, T3 population (FIG. 2)), around 15%.

Turning to `COc1cc(C=O)ccc1O` [vanillin], in assay [1], the “reduced adherent growth of sea bacteria compared to the commercial product” value is on record as 1.5-15.8 fold. Moreover, the “effect of vanillin release on plankton growth (OD600 relative to non-painted samples)” value in assay [3] is “reduced effect on the plankton growth”. Moreover, the “persistence of the inhibition effect on adhesion” value in assay [2] (M1 population, 10 days of incubation (FIG. 4)) is on record as “persists even after 10 days of incubation”. Also, in assay [2] (vanillin tested at 0.1 to 5 g/l, free form, T1, M1, T2, T1-T5, F1 populations (FIG. 3a-5)), the “concentration at which adhesion of microorganisms to solid surfaces is inhibited” value is recorded as “above 1 g/l”.
